Where a name gives a salt, the structure may show the parent alone.
What follows are compounds tested against T1, recombinant guanylate cyclase reporter cell line (Rattus norvegicus, UniProt P19686+P20595) (assay: B-2. Action on recombinant guanylate cyclase reporter cell line). Settings: MEC = minimal effective concentration; in some cases mean values from individual determinations.
T1 construct: expressed in transfected cells
T1 sequence (P20595 1-619): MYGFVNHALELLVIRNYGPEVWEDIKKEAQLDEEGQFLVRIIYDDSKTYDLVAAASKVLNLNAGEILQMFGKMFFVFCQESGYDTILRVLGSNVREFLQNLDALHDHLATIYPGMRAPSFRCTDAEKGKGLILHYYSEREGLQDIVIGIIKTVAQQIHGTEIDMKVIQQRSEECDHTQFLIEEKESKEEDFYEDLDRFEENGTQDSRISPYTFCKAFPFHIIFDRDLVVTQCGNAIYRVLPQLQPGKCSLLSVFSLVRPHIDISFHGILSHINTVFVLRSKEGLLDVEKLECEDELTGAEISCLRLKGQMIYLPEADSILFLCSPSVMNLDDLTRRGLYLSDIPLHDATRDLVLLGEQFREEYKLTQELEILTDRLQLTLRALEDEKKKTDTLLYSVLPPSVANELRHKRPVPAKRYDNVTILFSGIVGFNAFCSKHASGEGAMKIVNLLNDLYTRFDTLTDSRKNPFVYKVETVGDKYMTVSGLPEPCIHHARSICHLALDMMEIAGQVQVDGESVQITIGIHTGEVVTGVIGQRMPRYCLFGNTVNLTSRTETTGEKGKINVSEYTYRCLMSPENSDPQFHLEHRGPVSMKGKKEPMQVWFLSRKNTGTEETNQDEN
T1 sequence (P19686 1-690): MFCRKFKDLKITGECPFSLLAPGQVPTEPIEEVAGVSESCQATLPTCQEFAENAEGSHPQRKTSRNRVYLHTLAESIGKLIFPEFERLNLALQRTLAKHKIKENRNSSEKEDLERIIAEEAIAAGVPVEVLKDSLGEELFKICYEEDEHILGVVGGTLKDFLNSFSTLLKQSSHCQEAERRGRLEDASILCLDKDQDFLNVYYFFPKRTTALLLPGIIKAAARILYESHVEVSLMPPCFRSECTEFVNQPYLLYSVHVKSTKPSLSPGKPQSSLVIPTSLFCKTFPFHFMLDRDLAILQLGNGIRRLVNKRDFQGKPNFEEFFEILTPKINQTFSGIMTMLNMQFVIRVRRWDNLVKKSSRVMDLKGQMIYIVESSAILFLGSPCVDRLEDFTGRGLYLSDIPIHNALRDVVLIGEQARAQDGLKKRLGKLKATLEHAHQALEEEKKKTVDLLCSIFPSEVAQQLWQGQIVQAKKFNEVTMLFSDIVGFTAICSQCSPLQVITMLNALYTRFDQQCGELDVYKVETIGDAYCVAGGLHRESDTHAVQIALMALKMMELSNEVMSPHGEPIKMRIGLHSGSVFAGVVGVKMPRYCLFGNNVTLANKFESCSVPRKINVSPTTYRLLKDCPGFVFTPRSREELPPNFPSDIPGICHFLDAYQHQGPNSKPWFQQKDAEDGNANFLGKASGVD
Assay type: cell-based
How it was run: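 Read-out: MEC (minimal effective concentration) in cells. Reporter line carries recombinant sGC. Some values are averages of single runs.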

| SMILES | MEC [µM] |
| --- | --- |
| CCOCC(CN)NC(=O)c1c(C)nc2c(OCc3c(F)cccc3F)cc(Cl)cn12 (single isomer, unassigned) [Example 57, ent-N-(1-amino-3-ethoxypropan-2-yl)-6-chloro-8-[(2,6-difluorobenzyl)oxy]-2-methylimidazo[1,2-a]-pyridine-3-carboxamide] | 0.30 |
| Cc1nc2c(OCc3c(F)cccc3F)cccn2c1C(=O)NC(C)CN (single isomer, unassigned; enantiomer b) [Example 20, ent-N-(1-Aminopropan-2-yl)-8-[(2,6-difluorobenzyl)oxy]-2-methylimidazo[1,2-a]pyridine-3-carboxamide (Enantiomer B)] | 1.00 |
| Cc1nc2c(OCc3c(F)cccc3F)cccn2c1C(=O)N[C@H]1CCCNC1 [Example 60, 8-[(2,6-difluorobenzyl)oxy]-2-methyl-N-[(3S)-piperidin-3-yl]imidazo[1,2-a]pyridine-3-carboxamide dihydrochloride] | 0.30 |
| Cc1nc2c(OCc3c(F)cccc3F)cccn2c1C(=O)NC1CNCc2ccccc21 (single isomer, unassigned; ent-8) [Example 109, ent-8-[(2,6-difluorobenzyl)oxy]-2-methyl-N-(1,2,3,4-tetrahydroisoquinolin-4-yl)imidazo[1,2-a]pyridine-3-carboxamide] | 1.00 |
| Cc1nc2c(OCC3CCCCC3)cccn2c1C(=O)NC(CN)c1ccccc1 (racemic) [Example 44, rac-N-(2-Amino-1-phenylethyl)-8-(cyclohexylmethoxy)-2-methylimidazo[1,2-a]pyridine-3-carboxamide] | 0.30 |
| Cc1nc2c(OCc3c(F)cccc3F)cc(Cl)cn2c1C(=O)NCC(C)N (single isomer, unassigned; enantiomer a) [Example 29, ent-N-(2-Aminopropyl)-6-chloro-8-[(2,6-difluorobenzyl)oxy]-2-methylimidazo[1,2-a]pyridine-3-carboxamide (Enantiomer A)] | 0.20 |
| Cc1nc2c(OCc3c(F)cccc3F)cccn2c1C(=O)NC1CCNc2ccc(F)cc21 (single isomer, unassigned; ent-8) [Example 105, ent-8-[(2,6-difluorobenzyl)oxy]-N-(6-fluoro-1,2,3,4-tetrahydroquinolin-4-yl)-2-methylimidazo[1,2-a] pyridine-3-carboxamide] | 0.30 |
| Cc1nc2c(OCc3c(F)cccc3F)cccn2c1C(=O)NC(CN)CCCC(F)(F)F (single isomer, unassigned; enantiomer b) [Example 6, ent-N-(1-Amino-6,6,6-trifluorohexan-2-yl)-8-[(2,6-difluorobenzyl)oxy]-2-methylimidazo[1,2-a]-pyridine-3-carboxamide (Enantiomer B)] | 0.23 |
| Cc1nc2c(OCc3c(F)cccc3Cl)cccn2c1C(=O)NC(CN)c1ccc(F)c(F)c1 (stereo not drawn) [Example 102, ent-N-[2-amino-1-(3,4-difluorophenyl)ethyl]-8-[(2-chloro-6-fluorobenzyl)oxy]-2-methylimidazo[1,2-a]pyridine-3-carboxamide] | 1.00 |
| Cc1nc2c(OCc3c(F)cccc3F)cc(Cl)cn2c1C(=O)NCCC1(N)CCCCC1 [Example 33, N-[2-(1-Aminocyclohexyl)ethyl]-6-chloro-8-[(2,6-difluorobenzyl)oxy]-2-methylimidazo[1,2-a]-pyridine-3-carboxamide] | 0.30 |

The remaining lines, values ahead:

| MEC [µM] | SMILES |
| --- | --- |
| 1.00 | COCC(N)CNC(=O)c1c(C)nc2c(OCc3c(F)cccc3F)cccn12 (single isomer, unassigned; enantiomer b) [Example 248, ent-N-(2-Amino-3-methoxypropyl)-8-[(2,6-difluorobenzyl)oxy]-2-methylimidazo[1,2-a]pyridine-3-carboxamide (Enantiomer B)] |
| 0.03 | Cc1cc(OCc2c(F)cccc2F)c2nc(C)c(C(=O)NCC(C)(N)C3CC3)n2c1 (racemic) [Example 259, rac-N-(2-Amino-2-cyclopropylpropyl)-8-[(2,6-difluorobenzyl)oxy]-2,6-dimethylimidazo[1,2-a]-pyridine-3-carboxamide] |
| 0.55 | Cc1cc(OCc2c(F)cccc2F)c2nc(C)c(C(=O)NCC(C)(N)CO)n2c1 (single isomer, unassigned; enantiomer a) [Example 268, ent-N-(2-Amino-3-hydroxy-2-methylpropyl)-8-[(2,6-difluorobenzyl)oxy]-2,6-dimethylimidazo-[1,2-a]pyridine-3-carboxamide (Enantiomer A)] |
| 1.00 | COCC(C)(N)CNC(=O)c1c(C)nc2c(OCc3c(F)cccc3F)cccn12 (racemic) [Example 213, rac-N-(2-Amino-3-methoxy-2-methylpropyl)-8-[(2,6-difluorobenzyl)oxy]-2-methylimidazo[1,2-a]-pyridine-3-carboxamide] |
| 0.30 | Cc1nc2c(OCc3c(F)cccc3F)cccn2c1C(=O)NC(C)[C@H](C)N (stereo partly drawn) [Example 120, N-[(3S)-3-Aminobutan-2-yl]-8-[(2,6-difluorobenzyl)oxy]-2-methylimidazo[1,2-a]pyridine-3-carboxamide] |
| 1.00 | CCOC(=O)c1cccc(C(CN)NC(=O)c2c(C)nc3c(OCc4c(F)cccc4F)cc(C)cn23)n1 (racemic) [Example 397, rac-ethyl 6-{2-amino-1-[({8-[(2,6-difluorobenzyl)oxy]-2,6-dimethylimidazo[1,2-a]pyridin-3-yl}carbonyl)amino]ethyl}pyridine-2-carboxylate] |
| 1.00 | Cc1cc(OCc2c(F)cccc2F)c2nc(C)c(C(=O)NC(CN)c3cccc(OC(F)(F)F)c3)n2c1 (racemic) [Example 380, rac-N-{2-amino-1-[3-(trifluoromethoxy)phenyl]ethyl}-8-[(2,6-difluorobenzyl)oxy]-2,6-dimethylimidazo[1,2-a]pyridine-3-carboxamide] |
| 0.10 | Cc1cc(OCc2c(F)cccc2F)c2nc(C)c(C(=O)NC3CCNCC3(F)F)n2c1 (racemic) [Example 299, rac-8-[(2,6-difluorobenzyl)oxy]-N-(3,3-difluoropiperidin-4-yl)-2,6-dimethylimidazo[1,2-a]pyridine-3-carboxamide] |
| 0.03 | Cc1nc2c(OCc3c(F)cccc3F)cc(C(F)F)cn2c1C(=O)NCC(C)(N)CF (single isomer, unassigned; enantiomer b) [Example 292, ent-N-(2-amino-3-fluoro-2-methylpropyl)-8-[(2,6-difluorobenzyl)oxy]-6-(difluoromethyl)-2-methylimidazo[1,2-a]pyridine-3-carboxamide (Enantiomer B)] |
| 0.30 | Cc1nc2c(OCc3c(F)cccc3F)cccn2c1C(=O)NC(C)[C@H](C)N (single isomer, unassigned) [Example 174] |
| 1.00 | COCC(C)(N)CNC(=O)c1c(C)nc2c(OCc3c(F)cccc3F)cc(Cl)cn12 (single isomer, unassigned) [Example 197, ent-N-(2-Amino-3-methoxy-2-methylpropyl)-6-chloro-8-[(2,6-difluorobenzyl)oxy]-2-methylimidazo[1,2-a]pyridine-3-carboxamide] |
| 3.00 | Cc1cc(OCc2c(F)cccc2F)c2nc(C)c(C(=O)NC[C@H]3CCCN3)n2c1 [Example 116, 8-[(2,6-difluorobenzyl)oxy]-2,6-dimethyl-N-[(2R)-pyrrolidin-2-ylmethyl]imidazo[1,2-a]-pyridine-3-carboxamide] |
| 0.30 | Cc1cc(OCc2c(F)cccc2F)c2nc(C)c(C(=O)NCC(N)COC(C)C)n2c1 (racemic) [Example 206, rac-N-(2-Amino-3-isopropoxypropyl)-8-[(2,6-difluorobenzyl)oxy]-2,6-dimethylimidazo[1,2-a]-pyridine-3-carboxamide] |
| 1.00 | Cc1nc2c(OCc3c(F)cccc3F)cccn2c1C(=O)NCC(C)(N)CC(C)C (single isomer, unassigned) [Example 204, ent-N-(2-Amino-2,4-dimethylpentyl)-8-[(2,6-difluorobenzyl)oxy]-2-methylimidazo[1,2-a]pyridine-3-carboxamide] |
